Here are results for 4 compounds from ChEMBL document CHEMBL5247608, “HIV-1 gp120-CXCR4 recognition probed with synthetic nanomolar affinity D-peptides containing fragments of gp120 V3 loop” (Eur J Med Chem, 2022).

The target in series [1] is T1, C-X-C chemokine receptor type 4 (Homo sapiens, UniProt P61073). Kind of series: Displacement of 12G5 mAb from CXCR4 (unknown origin) expressed in CHO cells incubated for 40 mins by spectrophotometric method. It is filed as cell-based.
Series [2] concerns the target C-C chemokine receptor type 5 (Homo sapiens) (UniProt P51681). The series is described as follows: Displacement of C-45523 from CCR5 (unknown origin) expressed in CHO cells at 50 uM incubated for 40 mins by competitive binding assay based spectrophotometric method. The class given is cell-based.
Series [3] deals with C-X-C chemokine receptor type 4 (Homo sapiens), P61073 [N119A]. The series is described as follows: Displacement of 12G5 mAb from CXCR4 N119A mutant (unknown origin) expressed in CHO cells at 500 nM incubated for 40 mins by spectrophotometric method. It is filed as cell-based.
Sequence of C-X-C chemokine receptor type 4 (Homo sapiens), P61073 [N119A] (P61073 whole entry N119A): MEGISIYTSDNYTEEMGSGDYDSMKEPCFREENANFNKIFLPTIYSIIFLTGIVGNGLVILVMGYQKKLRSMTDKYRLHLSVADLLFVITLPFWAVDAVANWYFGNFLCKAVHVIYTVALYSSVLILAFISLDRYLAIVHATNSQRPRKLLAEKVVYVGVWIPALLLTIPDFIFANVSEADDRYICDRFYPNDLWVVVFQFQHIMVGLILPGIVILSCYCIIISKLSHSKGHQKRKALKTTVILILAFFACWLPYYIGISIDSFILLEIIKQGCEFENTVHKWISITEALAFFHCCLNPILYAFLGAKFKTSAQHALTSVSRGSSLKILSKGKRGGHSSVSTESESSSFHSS
In series [4] the target is T1, C-X-C chemokine receptor type 4. Kind of series: Antagonist activity against EGFP-tagged CXCR4 (unknown origin) transfected in CHO cells assessed as inhibition of SDF-1alpha-induced receptor internalization at 0.01 to 10 uM preincubated for 10 mins followed by SDF-1alpha addition by confocal microscopy. The class given is cell-based. To be noted: filed as antagonist, dose 0.01-10 µM.

Series [5] relates to C-X-C chemokine receptor type 4 (Homo sapiens), P61073 [E288Q]. Kind of series: Displacement of 12G5 mAb from CXCR4 E288Q mutant (unknown origin) expressed in CHO cells at 500 nM incubated for 40 mins by spectrophotometric method. To be noted: filed as antagonist. It is filed as cell-based.
Sequence of C-X-C chemokine receptor type 4 (Homo sapiens), P61073 [E288Q] (P61073 whole entry E288Q): as the sequence (P61073 whole entry N119A) above, with A119N, E288Q counted along it
Series [6] relates to C-X-C chemokine receptor type 4 (Homo sapiens), P61073 [D262N]. Kind of series: Displacement of 12G5 mAb from CXCR4 D262N mutant (unknown origin) expressed in CHO cells at 500 nM incubated for 40 mins by spectrophotometric method. To be noted: filed as antagonist. It is filed as cell-based.
Sequence of C-X-C chemokine receptor type 4 (Homo sapiens), P61073 [D262N] (P61073 whole entry D262N): as the sequence (P61073 whole entry N119A) above, with A119N, D262N counted along it
For series [7], the target named is T1, C-X-C chemokine receptor type 4. Kind of series: Antagonist activity against CXCR4 in human SUP-T1 cells assessed as inhibition of SDF-1alpha-induced intracellular calcium mobilization by Fluo-4AM dye based fluorescence analysis. It is filed as cell-based. To be noted: filed as antagonist, dose 0.01-10 µM. (Calcium assays in cells follow changes in intracellular calcium, usually with a dye or a luminescent sensor.)

Series [8] relates to C-X-C chemokine receptor type 4 (Homo sapiens), P61073 [W195A]. Kind of series: Displacement of 12G5 mAb from CXCR4 W195A mutant (unknown origin) expressed in CHO cells at 500 nM incubated for 40 mins by spectrophotometric method. It is filed as cell-based.
Sequence of C-X-C chemokine receptor type 4 (Homo sapiens), P61073 [W195A] (P61073 whole entry W195A): as the sequence (P61073 whole entry N119A) above, with A119N, W195A counted along it
Series [9] concerns C-X-C chemokine receptor type 4 (Homo sapiens), P61073 [T117A]. Kind of series: Displacement of 12G5 mAb from CXCR4 T117A mutant (unknown origin) expressed in CHO cells at 500 nM incubated for 40 mins by spectrophotometric method. It is filed as cell-based. To be noted: filed as antagonist.
Sequence of C-X-C chemokine receptor type 4 (Homo sapiens), P61073 [T117A] (P61073 whole entry T117A): as the sequence (P61073 whole entry N119A) above, with T117A, A119N counted along it
The target of series [10] is T1, C-X-C chemokine receptor type 4. The series is described as follows: Antagonist activity against CXCR4 in human SUP-T1 cells assessed as inhibition of SDF-1alpha-induced cell migration at 10 uM preincubated with cells for 30 mins followed by incubation with SDF-1alpha for 3 hrs by CellTiter-96 reagent based transwell assay. To be noted: filed as antagonist, time 210.0 min.

Series [11] relates to Human immunodeficiency virus 1. The series is described as follows: Antiviral activity against HIV-1 X4 NL4-3 infected in human PBMC assessed as inhibition of viral replication by measuring reduction in p24 antigen level at 10 uM measured after 5 days by ELISA. The class given is functional, organism-based. To be noted: time 5.0 day. In general terms: In an ELISA, binding on a coated surface is turned into a signal by an enzyme label.

Series [12] relates to C-X-C chemokine receptor type 4 (Homo sapiens), P61073 [D97A]. The series is described as follows: Displacement of 12G5 mAb from CXCR4 D97A mutant (unknown origin) expressed in CHO cells at 500 nM incubated for 40 mins by spectrophotometric method. The class given is cell-based.
Sequence of C-X-C chemokine receptor type 4 (Homo sapiens), P61073 [D97A] (P61073 whole entry D97A): as the sequence (P61073 whole entry N119A) above, with D97A, A119N counted along it
The test system of series [13] is C-X-C chemokine receptor type 4 (Homo sapiens), P61073 [W94A]. The series is described as follows: Displacement of 12G5 mAb from CXCR4 W94A mutant (unknown origin) expressed in CHO cells at 500 nM incubated for 40 mins by spectrophotometric method. It is filed as cell-based.
Sequence of C-X-C chemokine receptor type 4 (Homo sapiens), P61073 [W94A] (P61073 whole entry W94A): as the sequence (P61073 whole entry N119A) above, with W94A, A119N counted along it
Series [14] deals with C-X-C chemokine receptor type 4 (Homo sapiens), P61073 [F87A]. Kind of series: Displacement of 12G5 mAb from CXCR4 F87A mutant (unknown origin) expressed in CHO cells at 500 nM incubated for 40 mins by spectrophotometric method. It is filed as cell-based.
Sequence of C-X-C chemokine receptor type 4 (Homo sapiens), P61073 [F87A] (P61073 whole entry F87A): as the sequence (P61073 whole entry N119A) above, with F87A, A119N counted along it
Series [15] addresses T1, C-X-C chemokine receptor type 4. Kind of series: Antagonist activity against EGFP-tagged CXCR4 (unknown origin) transfected in CHO cells assessed as inhibition of SDF-1alpha-induced receptor internalization at 10 uM preincubated for 10 mins followed by SDF-1alpha addition by confocal microscopy. It is filed as cell-based. To be noted: filed as antagonist.
Series [16] relates to C-X-C chemokine receptor type 4 (Homo sapiens), P61073 [E288A]. The series is described as follows: Displacement of 12G5 mAb from CXCR4 E288A mutant (unknown origin) expressed in CHO cells at 500 nM incubated for 40 mins by spectrophotometric method. It is filed as cell-based.
Sequence of C-X-C chemokine receptor type 4 (Homo sapiens), P61073 [E288A] (P61073 whole entry E288A): as the sequence (P61073 whole entry N119A) above, with A119N, E288A counted along it
For series [17], the system named is C-X-C chemokine receptor type 4 (Homo sapiens), P61073 [H113A]. Kind of series: Displacement of 12G5 mAb from CXCR4 H113A mutant (unknown origin) expressed in CHO cells at 500 nM incubated for 40 mins by spectrophotometric method. The class given is cell-based.
Sequence of C-X-C chemokine receptor type 4 (Homo sapiens), P61073 [H113A] (P61073 whole entry H113A): as the sequence (P61073 whole entry N119A) above, with H113A, A119N counted along it
For series [18], the target named is T1, C-X-C chemokine receptor type 4. The series is described as follows: Antagonist activity against CXCR4 in human SUP-T1 cells assessed as inhibition of SDF-1alpha-induced intracellular calcium mobilization at 10 uM by Fluo-4AM dye based fluorescence analysis. The class given is cell-based. To be noted: filed as antagonist.
The test system of series [19] is C-X-C chemokine receptor type 4 (Homo sapiens), P61073 [W161A]. Kind of series: Displacement of 12G5 mAb from CXCR4 W161A mutant (unknown origin) expressed in CHO cells at 500 nM incubated for 40 mins by spectrophotometric method. It is filed as cell-based.
Sequence of C-X-C chemokine receptor type 4 (Homo sapiens), P61073 [W161A] (P61073 whole entry W161A): as the sequence (P61073 whole entry N119A) above, with A119N, W161A counted along it
Series [20] concerns the target T1, C-X-C chemokine receptor type 4. The series is described as follows: Antagonist activity against CXCR4 in human SUP-T1 cells assessed as inhibition of SDF-1alpha-induced cell migration preincubated with cells for 30 mins followed by incubation with SDF-1alpha for 3 hrs by CellTiter-96 reagent based transwell assay. To be noted: filed as antagonist, time 210.0 min.

Series [21] deals with C-X-C chemokine receptor type 4 (Homo sapiens), P61073 [D193A]. Kind of series: Displacement of 12G5 mAb from CXCR4 D193A mutant (unknown origin) expressed in CHO cells at 500 nM incubated for 40 mins by spectrophotometric method. It is filed as cell-based.
Sequence of C-X-C chemokine receptor type 4 (Homo sapiens), P61073 [D193A] (P61073 whole entry D193A): as the sequence (P61073 whole entry N119A) above, with A119N, D193A counted along it
Series [22] is described as follows: Cytotoxicity against human PBMC assessed as reduction in cell viability at 0.016 to 10 uM incubated for 5 days by CellTiter-Blue assay. It is filed as toxicity, cell-based. To be noted: 120 h, dose 0.016-10 µM, time 5 day. For orientation: Alamar Blue is a resazurin reagent that responds to reducing activity.
Series [23] concerns C-X-C chemokine receptor type 4 (Homo sapiens), P61073 [Y116A]. The series is described as follows: Displacement of 12G5 mAb from CXCR4 Y116A mutant (unknown origin) expressed in CHO cells at 500 nM incubated for 40 mins by spectrophotometric method. The class given is cell-based.
Sequence of C-X-C chemokine receptor type 4 (Homo sapiens), P61073 [Y116A] (P61073 whole entry Y116A): as the sequence (P61073 whole entry N119A) above, with Y116A, A119N counted along it
The test system of series [24] is C-X-C chemokine receptor type 4 (Homo sapiens), P61073 [Y45A]. The series is described as follows: Displacement of 12G5 mAb from CXCR4 Y45A mutant (unknown origin) expressed in CHO cells at 500 nM incubated for 40 mins by spectrophotometric method. To be noted: filed as antagonist. It is filed as cell-based.
Sequence of C-X-C chemokine receptor type 4 (Homo sapiens), P61073 [Y45A] (P61073 whole entry Y45A): as the sequence (P61073 whole entry N119A) above, with Y45A, A119N counted along it
Series [25] relates to C-X-C chemokine receptor type 4 (Homo sapiens), P61073 [E288D]. The series is described as follows: Displacement of 12G5 mAb from CXCR4 E288D mutant (unknown origin) expressed in CHO cells at 500 nM incubated for 40 mins by spectrophotometric method. It is filed as cell-based.
Sequence of C-X-C chemokine receptor type 4 (Homo sapiens), P61073 [E288D] (P61073 whole entry E288D): as the sequence (P61073 whole entry N119A) above, with A119N, E288D counted along it
The test system of series [26] is Human immunodeficiency virus 1. The series is described as follows: Antiviral activity against HIV-1 R5 Bal-6 infected in human PBMC assessed as inhibition of viral replication by measuring reduction in p24 antigen level at 0.1 to 10 uM measured after 5 days by ELISA. The class given is functional, organism-based. To be noted: dose 0.1-10 µM, time 5.0 day.

Active and inactive are the calls of the source. The calls are words filed in the database; no cut-off is given here. Where a SMILES comes first, the peptide text is derived from it. [ ]: non-standard residue; d: D form.

T1 sequence (P61073 whole entry): as the sequence (P61073 whole entry N119A) above, with A119N counted along it
Sequence of C-C chemokine receptor type 5 (Homo sapiens) (P51681 whole entry, looked up): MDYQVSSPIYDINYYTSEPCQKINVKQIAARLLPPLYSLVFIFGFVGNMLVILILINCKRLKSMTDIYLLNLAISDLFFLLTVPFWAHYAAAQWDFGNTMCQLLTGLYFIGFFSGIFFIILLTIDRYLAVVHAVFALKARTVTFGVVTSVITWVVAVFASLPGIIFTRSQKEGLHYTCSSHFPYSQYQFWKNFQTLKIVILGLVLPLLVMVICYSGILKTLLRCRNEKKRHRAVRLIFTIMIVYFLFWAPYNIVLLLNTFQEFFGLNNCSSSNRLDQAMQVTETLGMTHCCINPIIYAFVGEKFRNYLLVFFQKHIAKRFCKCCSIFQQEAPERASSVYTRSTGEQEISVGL

In general, IC50 refers to the concentration that gives 50% inhibition. Low values mean greater potency, high ones weaker potency. The inhibition is the drop in the measured response relative to a control, in per cent. Compound `CC(C)C[C@@H](N)C(=O)NCC(=O)N[C@H](C)C(=O)N[C@H](CO)C(=O)N[C@H](Cc1c[nH]c2ccccc12)C(=O)N[C@H](Cc1cnc[nH]1)C(=O)N[C@H](CCCNC(=N)N)C(=O)N1CCC[C@@H]1C(=O)N[C@H](CC(=O)O)C(=O)N[C@H](CCCCN)C(=O)N[C@H](CCCCN)C(=O)N[C@H](CCCNC(=N)N)C(=O)N(CCCCCC(=O)O)[C@@H](CCCCN)C(=O)N[C@@H](CCCNC(=N)N)C(=O)N[C@@H](CCCCN)C(=O)N[C@H](CS)C(=O)N[C@H](C(=O)N[C@@H](CCCNC(=N)N)C(=O)N1CCC[C@H]1C(=O)N[C@@H](CC(N)=O)C(=O)N[C@@H](CC(N)=O)C(=O)N[C@@H](CC(N)=O)C(=O)N[C@H](C(N)=O)[C@H](C)O)[C@H](C)O` showed an IC50 in [1] of 48 nM. Further, in [2], the inhibition was determined as 10.4%.

Consider `CC(C)C[C@@H](N)C(=O)NCC(=O)N[C@H](C)C(=O)N[C@H](CO)C(=O)N[C@H](Cc1c[nH]c2ccccc12)C(=O)N[C@H](Cc1cnc[nH]1)C(=O)N[C@H](CCCNC(=N)N)C(=O)N1CCC[C@@H]1C(=O)N[C@H](CC(=O)O)C(=O)N[C@H](CCCCN)C(=O)N[C@H](CCCCN)C(=O)N[C@H](CCCNC(=N)N)C(N)=O` (H-[dL]G[dA][dS][dW][dH][dR][dP][dD][dK][dK][dR]-NH2), for which the IC50 in [1] turned out to be 531 nM.

Take `CC(C)C[C@@H](N)C(=O)NCC(=O)N[C@H](C)C(=O)N[C@H](CO)C(=O)N[C@H](Cc1c[nH]c2ccccc12)C(=O)N[C@H](Cc1cnc[nH]1)C(=O)N[C@H](CCCNC(=N)N)C(=O)N1CCC[C@@H]1C(=O)N[C@H](CC(=O)O)C(=O)N[C@H](CCCCN)C(=O)N[C@H](CCCCN)C(=O)N[C@H](CCCNC(=N)N)C(=O)N(CCCCCC(=O)O)[C@@H](CCCCN)C(=O)N[C@@H](CCCNC(=N)N)C(=O)N[C@@H](CCCCN)C(=O)N[C@@H](CCC(N)=O)C(=O)N[C@@H](CCCNC(=N)N)C(=O)NCC(=O)N1CCC[C@H]1C(=O)NCC(=O)N[C@@H](CCCNC(=N)N)C(=O)N[C@@H](C)C(=O)N[C@@H](Cc1ccccc1)C(N)=O`: the inhibition result in series [3], in series [8], in series [12], in series [13], in [14] and in series [16] was “inactive” throughout. For the same compound, the inhibition result in series [17], in series [19], in series [21], in series [23] and in series [25] was “inactive” in each case. Also, the inhibition result in series [4], in [5], in [6], in [9] and in [24] was “Active” each time. In addition, the inhibition result in series [7] was “Dose-Dependent Effect”; in series [10] it was 100%; in series [2], 17.2%; in [15], 100%; in series [18], 100%; in series [20], “Dose-Dependent Effect”. Also, in series [11], the outcome was Active. In series [22], the Activity entry is “Non-Toxic”. The result in series [26] was inactive.

Turning to `CC(C)C[C@@H](N)C(=O)NCC(=O)N[C@H](C)C(=O)N[C@H](CO)C(=O)N[C@H](Cc1c[nH]c2ccccc12)C(=O)N[C@H](Cc1cnc[nH]1)C(=O)N[C@H](CCCNC(=N)N)C(=O)N1CCC[C@@H]1C(=O)N[C@H](CC(=O)O)C(=O)N[C@H](CCCCN)C(=O)N[C@H](CCCCN)C(=O)N[C@H](CCCNC(=N)N)C(=O)N(CCCCCC(=O)O)[C@@H](CCCCN[C@H](CS)C(=O)N[C@H](C(=O)N[C@@H](CCCNC(=N)N)C(=O)N1CCC[C@H]1C(=O)N[C@@H](CC(N)=O)C(=O)N[C@@H](CC(N)=O)C(=O)N[C@@H](CC(N)=O)C(=O)N[C@H](C(=O)N[C@@H](CCCCN)C(=O)N[C@@H](CCCNC(=N)N)C(N)=O)[C@H](C)O)[C@H](C)O)C(N)=O`, the IC50 in series [1] was 25.4 nM. Further, the outcome in series [11] was Active. The Activity entry in series [22] is reported as “Non-Toxic”. Moreover, the outcome in series [26] was inactive.
